Assay results as given in article PMC9014845 (Clinical cancer research : an official journal of the …, 2019).

Test system: patients with advanced solid tumors harboring FGFR1–3 gene alterations
Test: Phase I dose-escalation: safety/tolerability
Format: in vivo, human

Substance: Debio 1347
- TEAE: Back pain (150 mg (n=3), all grades): 1 (33) Number (%) of patients
- TEAE: Blurred vision (150 mg (n=3), all grades): 0 Number (%) of patients
- TEAE: Constipation (150 mg (n=3), all grades): 1 (33) Number (%) of patients
- TEAE: Creatinine increased (in blood) (150 mg (n=3), all grades): 0 Number (%) of patients
- TEAE: Decreased appetite (150 mg (n=3), all grades): 1 (33) Number (%) of patients
- TEAE: Diarrhea (150 mg (n=3), all grades): 1 (33) Number (%) of patients
- TEAE: Dry eye (150 mg (n=3), all grades): 1 (33) Number (%) of patients
- TEAE: Dry mouth (150 mg (n=3), all grades): 1 (33) Number (%) of patients
- TEAE: Dry skin (150 mg (n=3), all grades): 1 (33) Number (%) of patients
- TEAE: Dysgeusia (150 mg (n=3), all grades): 2 (67) Number (%) of patients
- TEAE: Dyspnea (150 mg (n=3), all grades): 1 (33) Number (%) of patients
- TEAE: Edema peripheral (150 mg (n=3), all grades): 1 (33) Number (%) of patients
- TEAE: Fatigue (150 mg (n=3), all grades): 0 Number (%) of patients
- TEAE: Hyperphosphatemia (150 mg (n=3), all grades): 3 (100) Number (%) of patients
- TEAE: Hypertension (150 mg (n=3), all grades): 0 Number (%) of patients
- TEAE: Hypokalemia (150 mg (n=3), all grades): 0 Number (%) of patients
- TEAE: Hypomagnesemia (150 mg (n=3), all grades): 0 Number (%) of patients
- TEAE: Mucosal inflammation (150 mg (n=3), all grades): 1 (33) Number (%) of patients
- TEAE: Myalgia (150 mg (n=3), all grades): 0 Number (%) of patients
- TEAE: Nail changes (150 mg (n=3), all grades): 3 (100) Number (%) of patients
- TEAE: Nausea (150 mg (n=3), all grades): 2 (67) Number (%) of patients
- TEAE: Stomatitis (150 mg (n=3), all grades): 1 (33) Number (%) of patients
- TEAE: Vomiting (150 mg (n=3), all grades): 1 (33) Number (%) of patients
- Patients requiring dose reduction (60 and 80 mg): 20%
- Any TEAE (all doses (n=58), all grades): 58 (100%) Number (%) of patients
- Any TEAE leading to discontinuation (all doses (n=58), all grades): 7 (12.1) Number (%) of patients
- Any TEAE leading to dose reduction (all doses (n=58), all grades): 13 (22.4) Number (%) of patients
- Any TEAE leading to treatment interruption (all doses (n=58), all grades): 26 (44.8) Number (%) of patients
- Serious TEAE (all doses (n=58), all grades): 20 (34.5) Number (%) of patients
- TEAE: ALT increased (all doses (n=58), all grades): 6 (10) Number (%) of patients
- TEAE: AST increased (all doses (n=58), all grades): 6 (10) Number (%) of patients
- TEAE: Abdominal pain (all doses (n=58), all grades): 12 (21) Number (%) of patients
- TEAE: Alopecia (all doses (n=58), all grades): 11 (19) Number (%) of patients
- TEAE: Anemia (all doses (n=58), all grades): 12 (21) Number (%) of patients
- TEAE: Back pain (all doses (n=58), all grades): 9 (16) Number (%) of patients
- TEAE: Blurred vision (all doses (n=58), all grades): 6 (10) Number (%) of patients
- TEAE: Constipation (all doses (n=58), all grades): 19 (33) Number (%) of patients
- TEAE: Creatinine increased (in blood) (all doses (n=58), all grades): 8 (14) Number (%) of patients
- TEAE: Decreased appetite (all doses (n=58), all grades): 18 (31) Number (%) of patients
- TEAE: Diarrhea (all doses (n=58), all grades): 24 (41) Number (%) of patients
- TEAE: Dry eye (all doses (n=58), all grades): 8 (14) Number (%) of patients
- TEAE: Dry mouth (all doses (n=58), all grades): 15 (26) Number (%) of patients
- TEAE: Dry skin (all doses (n=58), all grades): 10 (17) Number (%) of patients
- TEAE: Dysgeusia (all doses (n=58), all grades): 10 (17) Number (%) of patients
- TEAE: Dyspnea (all doses (n=58), all grades): 12 (21) Number (%) of patients
- TEAE: Edema peripheral (all doses (n=58), all grades): 8 (14) Number (%) of patients
- TEAE: Fatigue (all doses (n=58), all grades): 22 (38) Number (%) of patients
- TEAE: Hyperphosphatemia (all doses (n=58), all grades): 44 (76) Number (%) of patients
- TEAE: Hypertension (all doses (n=58), all grades): 7 (12) Number (%) of patients
- TEAE: Hypokalemia (all doses (n=58), all grades): 8 (14) Number (%) of patients
- TEAE: Hypomagnesemia (all doses (n=58), all grades): 7 (12) Number (%) of patients
- TEAE: Mucosal inflammation (all doses (n=58), all grades): 8 (14) Number (%) of patients
- TEAE: Myalgia (all doses (n=58), all grades): 12 (21) Number (%) of patients
- TEAE: Nail changes (all doses (n=58), all grades): 17 (29) Number (%) of patients
- TEAE: Nausea (all doses (n=58), all grades): 23 (40) Number (%) of patients
- TEAE: Stomatitis (all doses (n=58), all grades): 12 (21) Number (%) of patients
- TEAE: Vomiting (all doses (n=58), all grades): 11 (19) Number (%) of patients
- Any TEAE (all doses (n=58), grade ≥3): 37 (64%) Number (%) of patients
- TEAE: ALT increased (all doses (n=58), grade ≥3): 2 (3) Number (%) of patients
- TEAE: AST increased (all doses (n=58), grade ≥3): 1 (2) Number (%) of patients
- TEAE: Abdominal pain (all doses (n=58), grade ≥3): 1 (2) Number (%) of patients
- TEAE: Alopecia (all doses (n=58), grade ≥3): 0 Number (%) of patients
- TEAE: Anemia (all doses (n=58), grade ≥3): 7 (12) Number (%) of patients
- TEAE: Back pain (all doses (n=58), grade ≥3): 1 (2) Number (%) of patients
- TEAE: Blurred vision (all doses (n=58), grade ≥3): 0 Number (%) of patients
- TEAE: Constipation (all doses (n=58), grade ≥3): 1 (2) Number (%) of patients
- TEAE: Creatinine increased (in blood) (all doses (n=58), grade ≥3): 0 Number (%) of patients
- TEAE: Decreased appetite (all doses (n=58), grade ≥3): 1 (2) Number (%) of patients
- TEAE: Diarrhea (all doses (n=58), grade ≥3): 2 (3) Number (%) of patients
- TEAE: Dry eye (all doses (n=58), grade ≥3): 0 Number (%) of patients
- TEAE: Dry mouth (all doses (n=58), grade ≥3): 0 Number (%) of patients
- TEAE: Dry skin (all doses (n=58), grade ≥3): 0 Number (%) of patients
- TEAE: Dysgeusia (all doses (n=58), grade ≥3): 0 Number (%) of patients
- TEAE: Dyspnea (all doses (n=58), grade ≥3): 3 (5) Number (%) of patients
- TEAE: Edema peripheral (all doses (n=58), grade ≥3): 0 Number (%) of patients
- TEAE: Fatigue (all doses (n=58), grade ≥3): 0 Number (%) of patients
- TEAE: Hyperphosphatemia (all doses (n=58), grade ≥3): 12 (21) Number (%) of patients
- TEAE: Hypertension (all doses (n=58), grade ≥3): 0 Number (%) of patients
- TEAE: Hypokalemia (all doses (n=58), grade ≥3): 1 (2) Number (%) of patients
- TEAE: Hypomagnesemia (all doses (n=58), grade ≥3): 0 Number (%) of patients
- TEAE: Mucosal inflammation (all doses (n=58), grade ≥3): 1 (2) Number (%) of patients
- TEAE: Myalgia (all doses (n=58), grade ≥3): 0 Number (%) of patients
- TEAE: Nail changes (all doses (n=58), grade ≥3): 0 Number (%) of patients
- TEAE: Nausea (all doses (n=58), grade ≥3): 0 Number (%) of patients
- TEAE: Stomatitis (all doses (n=58), grade ≥3): 2 (3) Number (%) of patients
- TEAE: Vomiting (all doses (n=58), grade ≥3): 0 Number (%) of patients
- Patients in whom adverse events required dose modifications (all doses, n=58): 52%
- Patients requiring dose modifications due to AEs (all doses, n=58): 30 (52%) patients (%)
- Patients with dose modifications due to asymptomatic hyperphosphatemia (all doses, n=58): 22%
- Patients reporting blurred vision (at 30–150 mg, mainly grade 1): 6 patients
- Recommended phase 2 dose (RP2D) (dose reduction to 60 mg/day in case of intolerable toxicity): 80 mg/daily
- Maximum tolerated dose (doses up to 150 mg/day once daily, 3+3+3 design): not formally reached
- Patients with DLTs (first 4 weeks, at three dose levels, 58 treated at 10 to 150 mg/day): Five
- Number of DLTs (first 4 weeks, dry mouth/eyes, hyperamylasemia, hypercalcemia, hyperbilirubinemia, hyperphosphatemia, stomatitis): 6 DLTs
- SAEs deemed possibly study drug related (DLTs) (hyperamylasemia (80 mg), stomatitis (110 mg)): two
- Maximum severity of dermatological toxicity / nail changes (in vivo): ≤ 2 grade
- Patients with QTc prolongations of grade 1 or 2 (in vivo): Three
- Patients with nail changes requiring dose adjustment (in vivo): 3 patients
- Drug-related deaths (n=58): no death was considered drug-related
- Number of SAEs (n=58): 39 SAEs
- Patients experiencing SAEs (n=58): 20 patients
- Patients who died from disease progression (n=58): 21 patients
- Patients with highest TEAE severity grade 1 (n=58): 4 (7%) patients (%)
- Patients with highest TEAE severity grade 2 (n=58): 17 (29%) patients (%)
- Patients with highest TEAE severity grade 3 (n=58): 28 (48%) patients (%)
- Patients with highest TEAE severity grade 4 (n=58): 2 (3%) patients (%)
- Patients with highest TEAE severity grade 5 (n=58): 7 (12%) patients (%)
- Dose up to which tolerability was acceptable (oral once daily): up to 80 mg/day
- Lowest dose at which serum phosphate increases occurred (typically between 1st and 3rd week of dosing): 20 mg
- Dose reduction required (up to 40 mg): no dose reduction was required
